Literature values in patent US20230013142A1, “IODINE COMPOUNDS FOR TREATING RESPIRATORY PATHOGENS” (priority 2020, published 2023).

Tests used:
[1] = rats, ingestion, 2-year period
[2] = I2 and I- mixed solutions
a variety of viruses = conditions: on the skin
neuraminidase = conditions: virucidal mechanism of action
viral haemagglutinin = conditions: blockade of attachment to host cell receptors
parasite's acid vesicles = conditions: biologically active concentrations

Compound: [I-].[K+] [potassium iodide]
- concentration with long-term decrease in life span [1]: 100 ppm
- concentration with no long-term effects [1]: 10 ppm

Compound: II [iodine]
- air level considered immediately dangerous to life or health (IDLH) (air level): 2 ppm
- concentration at which reports of discomfort start (NIOSH) (inhalation): 1.5 ppm
- concentration at which work is difficult (inhalation): 1.5-2 ppm
- concentration at which short term exposure can be irritating (as low as) (inhalation, short term exposure): 0.1 ppm
- evaporation rate relative to 26 degrees (room temperature) ([2]; at 50 degrees Centigrade): over 10 times
- evaporation rate relative to 26 degrees ([2]; at 80 degrees): over 30 times
- time for successful use against viruses (a variety of viruses): ≤ 5 min
- concentration at which decreased virulence of viruses occurred (influenza viruses; in vitro): 0.005 ppm
- concentration for complete inactivation of viruses (influenza viruses; within 1 minute in vitro): 0.1 ppm

Compound: povidone iodine (2-Pyrrolidinone, 1-ethenyl-homopolymer) [PVP-I]
- effect on neuraminidase (neuraminidase): inhibition
- effect on viral haemagglutinin (viral haemagglutinin): inhibits

Compound: CCN(CC)CCCC(C)Nc1ccnc2cc(Cl)ccc12 (centres unmarked) [chloroquine]
- time to increase of pH of acid vesicles (parasite's acid vesicles): 3-5 min
